This is an account of results in patent publication US20110105565A1, “WATER SOLUBLE SMALL MOLECULE INHIBITORS OF THE CYSTIC FIBROSIS TRANSMEMBRANE CONDUCTANCE REGULATOR” (THE REGENTS OF THE UNIVERSITY OF CALIFORNIA, priority 2008, published 2011).

Each structure is given as a SMILES string. In brackets after ≈: the same amount, converted by molar mass. Read-outs that look alike come from different tables or passages of the source.

The nature of data set [1]: Solubility measurements in saline (PBS, LC/MS). Type of data set: physicochemical. As for the experimental part:
Solubility measurements. A saturated compound solution was prepared by addition of DMSO stock to phosphate buffered saline (final DMSO 2%) followed by sonication for 5 min at 25° C. and shaking at room temperature for 1 h. After centrifugation at 15,000 rpm for 1 h, the supernatant was analyzed by LC/MS with concentration determined from area under the curve, standardized against calibration data. A standard curve for each compound was obtained by plotting area under the curve from chromatograms against inhibitor concentration. The concentration range of the standard solutions was 1-15 μM (for 5) and 1-100 μM (other compounds). In all cases, standard curves prepared were linear with r>0.998.
A saturated drug solution of a compound was prepared by addition of the compound in DMSO to phosphate buffered saline (PBS), followed by sonication for 5 min at 25° C. Final concentration of DMSO was <2%. Each saturated solution was centrifuged and filtered. The saturated supernatant solution was diluted and injected into LC/MS. The concentration was determined from area under the curve using a calibration curve.

A further data set has as its system FRT cells. The experiment in a line: Cytotoxicity measurements, crystal violet staining of FRT cells. The note with it: 48 h. Format: cell-based, rat. Here is the method: Cytotoxicity measurements. FRT cells in confluent monolayers were incubated with compounds for 2 days. Cells were washed 3 times, fixed (cytofix, 30 min) and stained with crystal violet (100 μl, 0.5%, 10 min) using standard procedures. Excess crystal violet was removed by washing, and dye was extracted with Sorenson's buffer (0.1 M sodium citrate, 50% ethanol, pH 4.2). Crystal violet was quantified by measurement of absorbance at 650 nm. The percentage crystal violet staining was determined from test wells measured 8 times, compared to blanks (wells not containing cells) and vehicle-treated cells.
Cytotoxicity analysis was performed for Tetrazolo-172, Oxo-172, α-Me-172 and Pyridine-NO-172 (Compound 17) and compared with CFTRinh-172 (Table 3). […] Crystal violet staining was reduced for Tetrazolo-172 and α-Me-172 at 50 μM.

The next data set has as its target human wildtype CFTR (Homo sapiens, UniProt P13569). The experiment in a line: Fluorescence cell-based assay of CFTR inhibition (YFP iodide influx, FRT cells). The arrangement: expressed in transfected cells; host or cells: Fisher rat thyroid (FRT) cells. As to conditions: given as ranges, read-out: IC50.

human wildtype CFTR, sequence (P13569 whole entry): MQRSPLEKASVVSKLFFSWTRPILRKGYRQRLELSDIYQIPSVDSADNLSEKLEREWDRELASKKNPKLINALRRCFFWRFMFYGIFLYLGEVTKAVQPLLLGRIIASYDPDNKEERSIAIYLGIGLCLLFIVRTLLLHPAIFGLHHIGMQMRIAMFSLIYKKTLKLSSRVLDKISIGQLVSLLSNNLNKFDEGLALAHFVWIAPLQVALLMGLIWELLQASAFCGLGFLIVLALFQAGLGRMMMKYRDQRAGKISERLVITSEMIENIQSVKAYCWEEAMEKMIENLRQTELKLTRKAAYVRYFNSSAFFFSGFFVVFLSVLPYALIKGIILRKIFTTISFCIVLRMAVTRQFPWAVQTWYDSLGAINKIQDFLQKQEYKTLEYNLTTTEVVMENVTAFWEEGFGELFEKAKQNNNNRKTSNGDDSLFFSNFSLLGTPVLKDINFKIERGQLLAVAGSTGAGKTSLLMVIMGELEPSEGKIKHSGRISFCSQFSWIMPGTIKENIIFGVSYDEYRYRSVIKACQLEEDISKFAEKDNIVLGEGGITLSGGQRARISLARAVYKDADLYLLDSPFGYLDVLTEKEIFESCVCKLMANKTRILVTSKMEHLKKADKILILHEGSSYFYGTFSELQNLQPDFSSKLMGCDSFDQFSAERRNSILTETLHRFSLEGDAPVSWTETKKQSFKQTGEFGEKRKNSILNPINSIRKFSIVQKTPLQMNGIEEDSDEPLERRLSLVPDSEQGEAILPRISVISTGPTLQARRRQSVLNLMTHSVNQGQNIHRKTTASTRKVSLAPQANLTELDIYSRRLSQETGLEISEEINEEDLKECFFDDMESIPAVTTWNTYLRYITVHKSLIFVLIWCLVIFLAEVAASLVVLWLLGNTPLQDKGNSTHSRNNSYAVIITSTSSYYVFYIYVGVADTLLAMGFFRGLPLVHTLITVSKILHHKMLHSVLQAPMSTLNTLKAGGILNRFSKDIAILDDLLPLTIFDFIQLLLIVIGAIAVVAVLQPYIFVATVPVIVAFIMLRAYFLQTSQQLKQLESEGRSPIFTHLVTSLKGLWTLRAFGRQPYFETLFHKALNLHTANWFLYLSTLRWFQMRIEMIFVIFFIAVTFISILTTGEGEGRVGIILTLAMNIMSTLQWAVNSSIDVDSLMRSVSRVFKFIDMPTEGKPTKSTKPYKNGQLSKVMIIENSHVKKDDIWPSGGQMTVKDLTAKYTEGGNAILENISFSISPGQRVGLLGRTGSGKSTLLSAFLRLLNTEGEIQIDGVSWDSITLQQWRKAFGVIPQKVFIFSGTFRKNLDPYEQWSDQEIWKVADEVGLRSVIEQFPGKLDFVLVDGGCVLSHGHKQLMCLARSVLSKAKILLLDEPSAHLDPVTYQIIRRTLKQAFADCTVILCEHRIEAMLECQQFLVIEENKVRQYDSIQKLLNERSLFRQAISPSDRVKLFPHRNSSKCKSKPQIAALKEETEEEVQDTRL
Experimental for human wildtype CFTR: CFTR inhibition by thiazolidinone derivative compounds was determined by a fluorescence cell-based assay utilizing doubly transfected cells expressing human wild-type CFTR and a yellow fluorescent protein (YFP) iodide sensor, as described (see, e.g., Galietta, et al., J. Physiol. 281:C1734-C1742 (2001)). Fisher rat thyroid (FRT) cells stably expressing wild-type human CFTR and YFP-H148Q were cultured on 96-well black-wall plates as described (see, e.g., Ma, et al., J. Clin. Invest. 110:1651-1658 (2002)). Cells in 96-well plates were washed three times, and then CFTR was activated by incubation for 15 minutes with an activating cocktail containing 10 μM forskolin, 20 μM apigenin, and 100 μM IBMX. Test compounds were added 5 minutes before assay of iodide influx in which cells were exposed to a 100 mM inwardly directed iodide gradient. YFP fluorescence was recorded for 2 seconds before and 12 seconds after creation of the iodide gradient. Initial rates of iodide influx were computed from the time course of decreasing fluorescence after the iodide gradient.
CFTR-facilitated iodide influx following extracellular iodide addition results in quenching of cytoplasmic YFP fluorescence.

As to `O=C1/C(=C/c2ccc(-c3nn[nH]n3)cc2)SC(=S)N1c1cccc(C(F)(F)F)c1` [Compound 6, (Z)-5-(4-(1H-tetrazol-5-yl)benzylidene)-2-thioxo-3-(3-(trifluoromethyl)phenyl)thiazolidin-4-one], in data set [1], the “increase of solubility in saline/water relative to CFTRinh-172” value turned out to be 11 fold. In addition, the “Solubility in saline” value in data set [1] (Table 3, PBS, DMSO <2%) was found to be 189 µM (≈ 81.9 µg/mL). In addition, the “% Cell viability 20 μM” value with FRT cells (20 μM, crystal violet staining) stood at 87%. In addition, the “Crystal violet staining at 50 μM (in words)” value in the data set with FRT cells (50 μM) was “reduced”. Further, the “% Cell viability 50 μM” value in the data set on FRT cells (50 μM, crystal violet staining) came out at 73%. In addition, the IC50 – broadly, the concentration that gives 50% inhibition – fell in the range of 100 to 1000 nM at human wildtype CFTR (Table 1, upper part, CFTR inhibitory activity) and 100 to 1000 nM on human wildtype CFTR (Table 2 summary table).
